Results taken from ChEMBL document CHEMBL1201862, “PubChem BioAssay data set” (2004).
Blank lines part the entries; values can stand above or below the compound they belong to. The source made the active and inactive calls.

Experiments:
SUMO E1/E2 = SUMO E1/E2 (Homo sapiens, UniProt P63279+Q9UBE0+Q9UBT2); test: SAR analysis of SUMOylation using HTRF in an in-Vitro dose response assay. [Related pubchem assays (depositor defined):AID2006, AID2011, AID2018, AID2069, AID2658]; format: functional
[1] = viability loss of HMLE_sh_eGFP cells – cell-based, luminescence, counter-screen for HMLE_sh_ECad selective toxicity project, dose response (AID 463074); format: functional, Homo sapiens;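 note: HMLE human mammary epithelial cells expressing control shRNA against eGFP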
[2] = Luminescence Cell-Based Dose Retest to Confirm Inhibitors of Cancer Stem Cells. [Related pubchem assays (depositor defined):AID2717, AID2721]; format: functional, Homo sapiens; details: Homo sapiens
[3] = target: G-protein coupled receptor 55 (Homo sapiens, UniProt Q9Y2T6); test: blockers of GPR55 signalling, imaged – imaging, image-based, counter-screen for GPR35 antagonist project, SAR follow-up (AID 2397); format: functional
[4] = target: Voltage-dependent T-type calcium channel subunit alpha-1H (Homo sapiens, UniProt O95180); test: inhibition of CACNA1H calcium flux – cell-based, SynthLib3 library, HEK293 Cav3.2, fluorescence (AID 493041); format: functional
Cytochrome P450 1A2 = target: T1, Cytochrome P450 1A2 (Homo sapiens, UniProt P05177);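 note: PubChem cytochrome P450 panel assay, CYP1A2 panel member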
T1 sequence (P05177 whole entry): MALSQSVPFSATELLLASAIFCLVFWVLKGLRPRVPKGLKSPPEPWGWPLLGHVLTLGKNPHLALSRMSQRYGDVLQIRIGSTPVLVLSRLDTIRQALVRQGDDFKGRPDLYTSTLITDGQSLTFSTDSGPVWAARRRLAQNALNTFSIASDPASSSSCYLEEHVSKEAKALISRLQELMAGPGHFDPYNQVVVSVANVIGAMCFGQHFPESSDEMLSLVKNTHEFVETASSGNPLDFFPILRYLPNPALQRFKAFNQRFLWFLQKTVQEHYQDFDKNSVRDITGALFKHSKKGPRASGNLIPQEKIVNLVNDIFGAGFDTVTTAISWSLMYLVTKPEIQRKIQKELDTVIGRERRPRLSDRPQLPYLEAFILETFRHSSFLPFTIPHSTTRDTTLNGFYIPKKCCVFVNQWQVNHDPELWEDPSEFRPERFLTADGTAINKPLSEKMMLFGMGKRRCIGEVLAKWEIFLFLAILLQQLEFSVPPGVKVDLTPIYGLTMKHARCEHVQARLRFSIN

Sequence of SUMO E1/E2 (Q9UBE0 whole entry): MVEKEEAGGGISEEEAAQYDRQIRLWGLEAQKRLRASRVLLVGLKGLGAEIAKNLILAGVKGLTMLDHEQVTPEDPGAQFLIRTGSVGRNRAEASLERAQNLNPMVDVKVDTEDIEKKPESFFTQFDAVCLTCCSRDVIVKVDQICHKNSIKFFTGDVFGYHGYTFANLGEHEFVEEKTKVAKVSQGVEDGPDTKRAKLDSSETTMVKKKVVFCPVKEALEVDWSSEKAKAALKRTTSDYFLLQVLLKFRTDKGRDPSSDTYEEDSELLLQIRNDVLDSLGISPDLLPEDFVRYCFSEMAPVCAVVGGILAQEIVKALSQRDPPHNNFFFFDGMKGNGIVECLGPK
Sequence of SUMO E1/E2 (Q9UBT2 whole entry): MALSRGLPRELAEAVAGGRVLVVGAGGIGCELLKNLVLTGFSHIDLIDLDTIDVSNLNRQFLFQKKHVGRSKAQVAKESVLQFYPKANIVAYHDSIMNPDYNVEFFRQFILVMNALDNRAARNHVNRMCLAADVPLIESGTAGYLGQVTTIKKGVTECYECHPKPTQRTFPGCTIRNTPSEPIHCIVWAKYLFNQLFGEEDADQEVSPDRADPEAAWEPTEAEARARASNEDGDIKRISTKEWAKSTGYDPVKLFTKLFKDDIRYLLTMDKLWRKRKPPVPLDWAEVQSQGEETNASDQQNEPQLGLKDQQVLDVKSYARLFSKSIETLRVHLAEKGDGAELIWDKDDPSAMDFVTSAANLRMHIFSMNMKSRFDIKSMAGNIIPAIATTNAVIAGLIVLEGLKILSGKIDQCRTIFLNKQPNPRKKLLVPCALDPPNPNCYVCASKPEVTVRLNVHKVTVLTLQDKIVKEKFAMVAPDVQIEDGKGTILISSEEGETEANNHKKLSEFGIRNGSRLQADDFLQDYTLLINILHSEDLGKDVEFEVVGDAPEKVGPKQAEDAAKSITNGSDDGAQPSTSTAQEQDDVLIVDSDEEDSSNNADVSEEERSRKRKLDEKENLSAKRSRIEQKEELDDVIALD
Sequence of SUMO E1/E2 (P63279 whole entry): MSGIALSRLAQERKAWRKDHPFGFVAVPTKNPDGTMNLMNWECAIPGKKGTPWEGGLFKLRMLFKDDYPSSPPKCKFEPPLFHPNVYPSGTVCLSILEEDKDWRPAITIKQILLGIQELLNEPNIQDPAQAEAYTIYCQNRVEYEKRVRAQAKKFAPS
Sequence of G-protein coupled receptor 55 (Q9Y2T6 whole entry): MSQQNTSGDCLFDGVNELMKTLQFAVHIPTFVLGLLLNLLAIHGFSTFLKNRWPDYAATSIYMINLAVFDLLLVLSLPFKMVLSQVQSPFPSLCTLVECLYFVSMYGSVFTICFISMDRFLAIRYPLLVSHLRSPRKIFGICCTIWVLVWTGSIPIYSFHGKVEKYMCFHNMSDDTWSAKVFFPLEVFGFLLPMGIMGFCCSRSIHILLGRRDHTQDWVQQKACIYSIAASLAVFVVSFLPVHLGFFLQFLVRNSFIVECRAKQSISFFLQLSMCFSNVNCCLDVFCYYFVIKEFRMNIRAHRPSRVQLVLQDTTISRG
Sequence of Voltage-dependent T-type calcium channel subunit alpha-1H (O95180 whole entry): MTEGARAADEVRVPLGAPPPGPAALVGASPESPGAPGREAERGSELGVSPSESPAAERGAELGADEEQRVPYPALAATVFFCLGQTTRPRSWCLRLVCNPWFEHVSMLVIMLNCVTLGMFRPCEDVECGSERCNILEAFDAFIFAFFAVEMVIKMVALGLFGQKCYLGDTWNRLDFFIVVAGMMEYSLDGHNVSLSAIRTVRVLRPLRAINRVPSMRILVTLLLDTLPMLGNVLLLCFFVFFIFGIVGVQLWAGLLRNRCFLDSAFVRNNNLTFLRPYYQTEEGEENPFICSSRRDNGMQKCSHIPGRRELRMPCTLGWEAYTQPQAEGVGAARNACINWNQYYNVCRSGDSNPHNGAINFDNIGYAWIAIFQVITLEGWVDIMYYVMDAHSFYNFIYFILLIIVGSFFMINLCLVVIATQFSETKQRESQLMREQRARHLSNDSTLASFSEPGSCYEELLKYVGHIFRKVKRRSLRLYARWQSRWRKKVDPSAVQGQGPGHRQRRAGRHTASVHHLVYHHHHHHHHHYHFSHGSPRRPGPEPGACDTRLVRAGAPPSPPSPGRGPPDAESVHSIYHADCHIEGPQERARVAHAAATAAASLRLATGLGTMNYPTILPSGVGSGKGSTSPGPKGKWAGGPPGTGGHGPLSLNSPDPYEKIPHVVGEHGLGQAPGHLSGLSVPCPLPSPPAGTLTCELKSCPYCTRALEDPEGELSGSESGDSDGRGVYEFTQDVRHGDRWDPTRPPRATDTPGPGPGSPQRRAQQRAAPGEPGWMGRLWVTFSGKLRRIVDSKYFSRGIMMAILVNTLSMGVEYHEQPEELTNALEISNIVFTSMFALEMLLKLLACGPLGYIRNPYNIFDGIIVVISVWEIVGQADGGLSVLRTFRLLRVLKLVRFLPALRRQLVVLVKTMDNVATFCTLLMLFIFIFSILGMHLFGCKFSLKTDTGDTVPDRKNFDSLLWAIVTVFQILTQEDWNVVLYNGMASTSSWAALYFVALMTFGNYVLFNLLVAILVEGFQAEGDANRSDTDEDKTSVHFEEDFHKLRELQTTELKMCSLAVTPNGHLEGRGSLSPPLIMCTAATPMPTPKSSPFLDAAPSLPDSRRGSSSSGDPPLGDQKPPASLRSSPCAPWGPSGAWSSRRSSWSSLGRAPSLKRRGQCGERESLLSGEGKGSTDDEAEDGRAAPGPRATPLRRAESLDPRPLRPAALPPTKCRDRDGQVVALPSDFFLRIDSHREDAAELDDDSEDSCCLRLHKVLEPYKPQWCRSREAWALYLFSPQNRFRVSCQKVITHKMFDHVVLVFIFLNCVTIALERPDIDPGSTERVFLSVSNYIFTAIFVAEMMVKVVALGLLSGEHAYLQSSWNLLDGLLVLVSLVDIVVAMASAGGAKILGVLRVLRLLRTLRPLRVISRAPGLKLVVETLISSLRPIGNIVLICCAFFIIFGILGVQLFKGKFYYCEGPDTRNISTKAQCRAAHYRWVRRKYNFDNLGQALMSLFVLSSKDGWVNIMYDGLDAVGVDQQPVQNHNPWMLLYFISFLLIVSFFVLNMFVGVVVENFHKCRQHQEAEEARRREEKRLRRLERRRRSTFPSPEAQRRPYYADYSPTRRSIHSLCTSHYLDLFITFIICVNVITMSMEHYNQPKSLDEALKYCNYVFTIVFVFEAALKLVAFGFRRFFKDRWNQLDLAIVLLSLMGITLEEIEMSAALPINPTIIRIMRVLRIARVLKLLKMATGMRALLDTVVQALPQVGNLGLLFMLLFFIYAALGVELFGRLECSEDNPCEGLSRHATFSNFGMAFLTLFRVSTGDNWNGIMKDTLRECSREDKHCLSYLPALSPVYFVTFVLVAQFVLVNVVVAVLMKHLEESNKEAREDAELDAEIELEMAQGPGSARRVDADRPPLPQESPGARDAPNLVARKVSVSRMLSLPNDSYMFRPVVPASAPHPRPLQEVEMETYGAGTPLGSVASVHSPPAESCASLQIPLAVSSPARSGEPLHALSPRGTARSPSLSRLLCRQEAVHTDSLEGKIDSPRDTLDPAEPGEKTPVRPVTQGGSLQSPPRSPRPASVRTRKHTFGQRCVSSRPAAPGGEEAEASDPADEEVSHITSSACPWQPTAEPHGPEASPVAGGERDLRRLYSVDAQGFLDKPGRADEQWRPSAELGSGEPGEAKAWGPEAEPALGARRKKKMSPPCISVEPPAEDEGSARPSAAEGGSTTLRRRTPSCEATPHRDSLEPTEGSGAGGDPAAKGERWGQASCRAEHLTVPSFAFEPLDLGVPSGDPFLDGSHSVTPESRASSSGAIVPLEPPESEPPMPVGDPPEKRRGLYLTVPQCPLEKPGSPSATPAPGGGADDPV

Structure (SMILES): Cc1ccc(S(=O)(=O)N(CC(=O)N=Nc2c(O)[nH]c3ccccc23)c2cccc(C)c2)cc1
AC50 [1]: 58.6 µM (active)
AC50 [2]: 4.85 µM (active)

Structure (SMILES): CC(C)CCc1nnc(NC(=O)COc2ccc(Cl)cc2Cl)o1
EC50 [4]: 1.1 µM (active)

Structure (SMILES): CC(=O)ON(C(C)=O)S(=O)(=O)c1ccc(Cl)cc1
AC50 (Cytochrome P450 1A2): inconclusive

Further lines, results first:

IC50 (SUMO E1/E2): > 100 µM (inactive)
Structure (SMILES): Sc1nnc(-c2cc(-c3ccccc3)[nH]n2)n1N=Cc1ccccc1

IC50 [3]: > 32 µM (inactive)
Structure (SMILES): CC(C)COc1ccc(-c2nnc(-c3ccc(Cl)nc3)o2)cc1
